≈ marks a conversion by molar mass, not a printed value.
How the values were obtained:
[1] = target: T1, L-histidine decarboxylase (Homo sapiens, UniProt P19113); settings: background statement; cited from earlier work
T1 sequence (P19113 1-662): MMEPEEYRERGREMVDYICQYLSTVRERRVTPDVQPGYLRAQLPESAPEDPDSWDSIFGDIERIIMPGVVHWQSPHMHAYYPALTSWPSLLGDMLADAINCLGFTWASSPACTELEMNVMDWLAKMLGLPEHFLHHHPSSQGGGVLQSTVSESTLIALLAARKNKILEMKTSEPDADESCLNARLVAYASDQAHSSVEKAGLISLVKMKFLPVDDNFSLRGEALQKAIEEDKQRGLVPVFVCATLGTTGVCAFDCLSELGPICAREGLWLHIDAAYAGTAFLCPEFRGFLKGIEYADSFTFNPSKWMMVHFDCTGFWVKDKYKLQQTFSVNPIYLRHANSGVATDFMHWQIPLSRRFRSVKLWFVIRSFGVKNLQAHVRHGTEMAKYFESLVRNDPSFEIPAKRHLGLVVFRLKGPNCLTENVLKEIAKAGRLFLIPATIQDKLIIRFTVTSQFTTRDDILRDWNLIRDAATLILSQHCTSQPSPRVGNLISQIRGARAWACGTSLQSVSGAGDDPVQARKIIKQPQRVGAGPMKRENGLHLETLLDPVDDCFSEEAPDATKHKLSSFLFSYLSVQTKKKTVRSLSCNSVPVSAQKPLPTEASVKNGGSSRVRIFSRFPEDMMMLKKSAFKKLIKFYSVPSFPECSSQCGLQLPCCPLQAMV

[2] = physchem; settings: organic solvent or mixture
[3] = in water at room temperature; background statement; cited from earlier work
[4] = hydrochloride formed in situ by addition of hydrochloric acid to tritoqualine in solution; background statement; cited from earlier work
[5] = Solubility in ethanol; settings: at 20° C.
[6] = Solubility in organic solvents (ethers, alcohols, glycols, ketones); format: physicochemical
[7] = Solubility in water

melting point [°C]	solubility ([2]; 20 °C) [mg/mL]	solubility [2] [mg/mL]	Solubility in ethanol [5] [g/l at]	Solubility in alcohols and glycols compared with tritoqualine base ([6]; alcohols and glycols)	Solubility in ethers ([6]; ethers)	Solubility in primary alcohols, acetone and methyl ethyl ketone ([6]; primary alcohols, acetone, methyl ethyl ketone)	Behaviour in aqueous solution at pH>3.0 [7]	Molecule	Activity as enzymatic inhibitor of L-histidine decarboxylase [1]	Solubility in water [3] [ppm]	Half lifetime in an aqueous solution [4]
184	2.5 (≈ 4.99 mM)	50 (≈ 99.9 mM)	–	–	–	–	–	CCOc1c(N)c2c(c(OCC)c1OCC)C(C1c3c(cc4c(c3OC)OCO4)CCN1C)OC2=O (centres unmarked) [Base, 7-amino-4,5,6-triethoxy-3-(4-methoxy-6-methyl-7,8-dihydro-5H-[1,3]dioxolo[4,5-g]isoquinoline-5-yl)-3H-isobenzofuran-1-one]	very low	100	–
–	–	–	>300	much more soluble than tritoqualine base	very little soluble or even insoluble	soluble	precipitates	tritoqualine hydrochloride	–	–	a few hours

From patent US9718833B2, “Tritoqualine hydrochloride in crystalline form and a process for obtaining same” (priority 2013, dated 2017)
